Results: patent publication US9987294B2, “Mitochondria-targeted anti-tumor agents” (University of Massachusetts, priority 2007, dated 2018)
Entries after “also recorded” stand apart in the source; their conditions may differ.

Experiments:
[1] = tested on: HeLa cell mitochondria; experiment: Cytochrome c and Smac release from isolated tumor mitochondria (Western blotting); format: biochemical, human
Method: Tumor cell types were treated with controls or the various Hsp90 antagonists, and cytosolic extracts were harvested at increasing time intervals between 5-30 minutes and analyzed by Western blotting. For experiments in a cell-free system, purified mitochondria (20 μg) were suspended in 500 μl of SB buffer (0.2 M sucrose, 10 mM Tris-MOPS, pH 7.4, 5 mM succinate, 1 mM sodium phosphate, 10 μM EGTA-Tris, and 2 μM rotenone). Samples were treated with controls or the various Hsp90 antagonists for 20 minutes at 22° C. At the end of each incubation reaction, mitochondria and supernatants were separated by centrifugation at 6,000×g for 10 minutes, and analyzed by Western blotting.

[2] = tested on: Raji cells; experiment: Mitochondrial membrane potential in JC-1-loaded cells (flow cytometry); format: cell-based, human; conditions: within five minutes of addition
Method: Raji cells were treated with Shepherdin or control scrambled peptidomimetic (100 μM) or 17-AAG (5 μM), loaded with the mitochondrial membrane potential-sensitive fluorescent dye JC-1, and analyzed for changes in green/red fluorescence ratio by flow cytometry. For experiments in a cell-free system, purified mitochondria isolated from primary normal cells, various tumor cells types, or normal mouse organs were suspended in SB buffer. […] For these experiments, TMRM-loaded mitochondria in SB buffer were allowed to reach stable fluorescence, which was set as fully polarized state (maximum membrane potential). The fluorescence intensity after treatment with 2 mM CaCl2 was set as minimum membrane potential (fully depolarized state). Changes in fluorescence intensity after each treatment were plotted as a ratio between maximum and minimum membrane potential.

[3] = tested on: HeLa cells; experiment: Cytochrome c release into the cytosol of treated tumor cells (Western blotting); format: cell-based, human
[4] = tested on: tumor cells; experiment: Cell viability by MTT, tumor cell types; format: cell-based
[5] = tested on: Akt, Chk1 and Hsp70 in HeLa cells; experiment: Hsp90 client protein and Hsp70 levels in treated cells (Western blotting); format: cell-based, human; conditions: 5 μM for 24 hours
Method: In other experiments, chaperone-dependent GST-Chk1 reconstitution was determined as described previously (Arlander et al., “Chaperoning checkpoint kinase 1 (Chk1), an Hsp90 client, with purified chaperones,” J Biol Chem, 281:2989-2998 (2006)). Briefly, each sample contained 0.7 μg of resin-bound GST-Chk1 (residues 1-265), 1 μg of purified human Hsp90α, and the following amounts of other purified chaperone proteins: 10 μg Hsp70, 2 μg Hdj1, 2 μg p50^cdc37, 0.06 units CK2, 2.5 μg p60^Hop. Optical densities due to Chk1-dependent phosphorylation of Cdc25 in the presence and absence of Gamitrinib or 17-AAG were determined and plotted as fold activation above the sample lacking added chaperone proteins. In some experiments, HeLa cells were treated with Gamitrinibs (G1-G4) or 17-AAG (5 μM) for 24 hours, and isolated extracts were analyzed for modulation of Akt or Hsp70 expression, by Western blotting

[6] = tested on: isolated tumor mitochondria; experiment: Inner membrane potential of TMRM-loaded tumor mitochondria; format: biochemical
Method: (§1) The fluorescence intensity after treatment with 2 mM CaCl2 corresponded to a fully depolarized state. Alternatively, H460 cells were labeled with the fluorescent dye JC-1 (Molecular Probes), and analyzed for changes in red/green (F1-2/F1-1) fluorescence ratio after treatment with the various agents, by multiparametric flow cytometry. Cytochrome c content in pellets or supernatants of drug-treated isolated mitochondria was determined by Western blotting.

[7] = tested on: tumor mitochondria; experiment: Cytochrome c release from drug-treated isolated tumor mitochondria; format: biochemical
Method: Tumor cell types were treated with controls or the various Hsp90 antagonists, and cytosolic extracts were harvested at increasing time intervals between 5-30 minutes and analyzed by Western blotting. For experiments in a cell-free system, purified mitochondria (20 μg) were suspended in 500 μl of SB buffer (0.2 M sucrose, 10 mM Tris-MOPS, pH 7.4, 5 mM succinate, 1 mM sodium phosphate, 10 μM EGTA-Tris, and 2 μM rotenone). […] At the end of each incubation reaction, mitochondria and supernatants were separated by centrifugation at 6,000×g for 10 minutes, and analyzed by Western blotting.
as §1

[8] = tested on: lung adenocarcinoma H460 cells; experiment: Cell viability by MTT, H460; format: cell-based, human
Method: (§2) Modulation of cell viability was determined by MTT (Kang et al., “Regulation of tumor cell mitochondrial homeostasis by an organelle-specific Hsp90 chaperone network,” Cell, 131:257-270 (2007)). For determination of apoptosis, cells were analyzed for caspase activity (DEVDase activity) and plasma membrane integrity (propidium iodide) using CaspaTag (Intergen, Burlington, Mass.), by multiparametric flow cytometry (Kang et al., “Regulation of tumor cell mitochondrial homeostasis by an organelle-specific Hsp90 chaperone network,” Cell, 131:257-270 (2007)).

[9] = tested on: breast adenocarcinoma SKBr3 cells; experiment: Metabolic activity by MTT, SKBr3; format: cell-based; conditions: 10 μM; by 48 hours and throughout a 96-hours interval
Method: as §2

[10] = tested on: SKBr3 cells; experiment: Dead cells by Trypan blue staining, SKBr3; format: cell-based; conditions: 10 μM
[11] = tested on: H460 lung adenocarcinoma xenograft tumors; experiment: Xenograft tumor growth, H460; format: in vivo, mice; conditions: i.p.; G4 and 17-AAG 2-3 mg/kg twice daily, G1 30-50 mg/Kg daily, TPP 10 mg/Kg daily
Method: To create the models used in this example, HL60 (10×10^6) or H460 (4×10^6) cells suspended in sterile PBS (200 μl) were injected subcutaneously into both flanks of 10 week-old CB17 SCID/beige (Taconic Farms) immunocompromised female mice. Alternatively, MDA-MB-231 cells (5×10^6) suspended in 200 μl of 50% Matrigel (BD Biosciences) were used for subcutaneous injection in CB17 SCID/beige mice. When superficial tumors reached volumes of 100-150 mm^3, animals were randomized in two groups (2 tumors/mouse, 3 animals/group), and treated with vehicle (DMSO) or Gamitrinib dissolved in 20% Cremophor EL (Sigma) in PBS by intraperitoneal (i.p.) injection. Gamitrinib-G4 was used as sterile i.p. injections with the following schedules: HL60 xenografts, 2 mg/Kg twice daily; H460 xenografts, 2 mg/kg twice daily for d 0, 2.5 mg/kg twice daily for d 1, 3.0 mg/kg twice daily for the duration of treatment; MDA-MB-231 xenografts, 2 mg/Kg twice daily for d 0-2, 2.5 mg/Kg twice daily for d 3-5, and 3 mg/Kg twice daily throughout the rest of the treatment. 17-AAG was dissolved in 20% Cremophor EL and used as systemic i.p. injections with the same dose-escalating regimen as Gamitrinib-G4 in H460 xenograft studies. Gamitrinib-G1 was used with following schedules: 30 mg/Kg daily (d 0-2), and 50 mg/Kg daily for the rest of treatment. Gamitrinib-TPP was used as i.p. injections at 10 mg/Kg daily throughout the duration of the experiment. Tumor measurements were taken daily with a caliper, and tumor volume was calculated with the formula ([length in millimeters]×[width in millimeters]^2)/2. Mice in the various treatment groups were weighed at the beginning and at the end of each experiment.

Structure (SMILES): C=CCNC1=C2C[C@@H](C)C[C@H](OC)[C@H](O)[C@@H](C)/C=C(\C)[C@H](OC(N)=O)[C@@H](OC)/C=C\C=C(/C)C(=O)NC(=CC1=O)C2=O [Gamitrinib 17-AAG, 17-allylamino-demethoxygeldamycin]
- cytochrome c or Smac release from isolated tumor mitochondria ([1]; HeLa cell mitochondria): did not induce cytochrome c or Smac release; also recorded: had no effect on mitochondrial integrity
- discharge of mitochondrial cytochrome c and Smac in the supernatant ([1]; high concentrations (20 μM)): a small discharge of mitochondrial cytochrome c, but not Smac
- mitochondrial membrane potential in tumor cells [2]: did not affect mitochondrial membrane potential in HeLa cells
- cytochrome c release into the cytosol [3]: had no effect on cytochrome c release over a wide range of concentrations
- tumor cell viability / killing ([4]; 1 hour exposure, MTT): had no effect on tumor cell viability within the same kinetics
- tumor cell killing ([4]; prolonged exposure, 24 hours after treatment): partial cell killing; also recorded: modest anticancer activity
- expression of the chaperone Hsp70 [5]: increased expression of the chaperone Hsp70
- levels of client proteins Chk1 and Akt [5]: destabilization of client proteins, Chk1 and Akt
- mitochondrial inner membrane potential [6]: did not affect mitochondrial membrane potential
- discharge of mitochondrial cytochrome c ([7]; 20 minutes): ineffective
- cytochrome c release from mitochondria ([7]; 3 hours (FIG. 16D)): had no effect on cytochrome c release
- cell viability ([8]; 3 hour exposure): had no effect
- cell viability ([8]; 24 hours): partial reduction in cell viability or cell proliferation
- metabolic activity [9]: comparably reduced metabolic activity
- tumor cell killing (dead cells) [10]: most SKBr3 cells treated with 17-AAG were still alive after 72 hours
- tumor growth [11]: had no effect on human lung cancer growth in mice
